Data from patent publication US20140044766A1, “METHOD FOR THE ANTIMICROBIAL PROTECTION OF AN OBJECT USING AN ANTIMICROBIAL PRESSURE-SENSITIVE ADHESIVE PLASTICS FILM” (priority 2007, published 2014).
Entries after “also recorded” stand apart in the source; their conditions may differ.

Key:
[1] = tested on: penicillin-resistant Stapylococcus aureus; details: cited from earlier work
Pseudomonas aeruginosa = details: cited from earlier work
[2] = tested on: Staphylococcus aureus bacteria; assay: inhibition zone method, similar to Japanese standard JIS L 1902: 2002; assay type: cell-based
Description: The antimicrobial activity of the films was determined using the inhibition zone method, similar to that described in Japanese standard JIS L 1902: 2002. The film was cut into small disks with a diameter of 1 cm. They were immersed in a dish containing a nutrient medium and a known quantity of yellow colored Staphylococcus aureus bacteria. […] A protective halo was formed around the treated samples that was termed the inhibition zone, as shown in FIGS. 4-1 to 4-15 representing the results for the antimicrobial films of Examples 1 to 15. Measuring this halo allowed the intensity of the antimicrobial activity of the film to be determined.

Q: What does the source list for `Oc1cc(Cl)ccc1Oc1ccc(Cl)cc1Cl` [triclosan, 5-chloro-2-(2,4-dichlorophenoxy)phenol]?
A: effect on penicillin-resistant Stapylococcus aureus [1]: simply inhibited; effect on Pseudomonas aeruginosa (Pseudomonas aeruginosa): not affected; antimicrobial activity in varnish-coated films (comparison in words) ([2]; agent incorporated in acrylic varnish on PVC film): more effective than Parmetol CF10 and Irgaguard H6000; also recorded: retained a high activity compared with the others; antimicrobial activity in a film incorporating the agent in its material (comparison in words) ([2]; cast PVC film, Examples 8 to 15): highest antimicrobial activity
